{"source": "patent US20220233743A1", "about": "“WOUND CLOSURE ENHANCEMENT METHODS AND MATERIALS VIA MANIPULATION OR AUGMENTATION OF LIPIN-1” (Board of Supervisors of Louisiana State University and …, priority 2019, published 2022)", "system": "BMDMs", "assay": "OCR in response to AC with and without etomoxir, Seahorse", "type": "cell-based, mouse", "details": "for OCR in response to AC with pretreatment of etomoxir: 40 μM etomoxir 15 min, then AC 4:1", "method": "Thymocytes (Jurkats) were subjected to UV light for 20 min in a 10-cm dish in sterile PBS. Cells were collected, and media was changed to D10 media followed by a 2-h incubation at 37° C. to allow for cells to become apoptotic. Cells were collected and centrifuged at 400×g for 5 min. Cells were resuspended in 2×10^−6 M PKH26 for 3 min. Staining was stopped by adding equivalent volumes of FBS.\nBMDMs collected from lipin-1^mEnzyKO, lipin-1^mKO, and littermate control mice were seeded at a density of 150,000 cells per well on XF24 cell culture microplates and allowed to incubate for 4 h. Experiments were conducted in XF assay medium containing 25 mM glucose, 2 mM 1-glutamine, and 1 mM sodium pyruvate and analyzed using a Seahorse XFe 24 extracellular flux analyzer (Agilent Technologies). Where indicated, the following were injected: ATP-synthesis inhibitor oligomycin (Oligo; 1 μM), carbonyl cyanide 4-(trifluoromethoxy)phenylhydrazone (FCCP) (2 μM) to uncouple ATP synthesis, rotenone (100 nM) to block complex I, and antimycin A (1 μM) (Sigma-Aldrich) to block complex III. Oxygen consumption rate (OCR) was analyzed using Wave Desktop software (Agilent Technologies).\nThe inventors have shown that lipin-1 is required for increased OCR in response to free fatty acids, but the inventors wanted to know if lipin-1 regulates β-oxidation in response to AC during efferocytosis. BMDMs from WT, lipin-1^mEnzyKO, and lipin-1^mKO mice were either pretreated with or without etomoxir to prevent fatty acid transport into the mitochondria followed by the addition of AC to the macrophages at an AC/BMDM ratio of 4:1. AC were incubated with BMDMs for 30 min prior to the start of Seahorse analysis. […] Etomoxir treatment of unstimulated (no AC) WT, lipin-1 EKO, and lipin-1 KO macrophages allowed the inventors to determine basal lipid use."}
{"smiles": "CCOC(=O)[C@@]1(CCCCCCOc2ccc(Cl)cc2)CO1", "note": "[etomoxir]", "values": [{"measurement": "OCR in response to AC with pretreatment of etomoxir", "setting": "WT macrophages", "result": "significant reduction"}, {"measurement": "OCR in response to AC with pretreatment of etomoxir", "setting": "lipin-1 EKO macrophages", "result": "significant reduction"}, {"measurement": "OCR in response to AC with pretreatment of etomoxir", "setting": "lipin-1 KO macrophages", "result": "no significant difference in OCR"}, {"measurement": "OCR with etomoxir alone (basal lipid use)", "setting": "unstimulated (no AC) WT macrophages", "result": "significant reduction in OCR"}, {"measurement": "OCR with etomoxir alone (basal lipid use)", "setting": "unstimulated (no AC) lipin-1 EKO macrophages", "result": "significant reduction in OCR"}, {"measurement": "OCR with etomoxir alone (basal lipid use)", "setting": "unstimulated (no AC) lipin-1 KO macrophages", "result": "significant reduction in OCR"}]}
